Structures can show the parent of a compound that is named as a salt.
What was measured:
[1] = solubility of active agent, its salts and cosolvent solutions; conditions: for solubility (in words): salts of the active agent
[2] = pH of salt solutions; assay type: physicochemical
[3] = tested on: calcium channel; conditions: statement in background; cited from earlier work
[4] = tested on: rat tail vein; test: rat tail vein injection (irritation / in vivo acceptability)
Protocol: In vivo acceptability is tested by injecting a small amount of the formulation into the tail vein of a rat or other suitable species, for example, as described by Waynforth, Experimental and Surgical Technique in the Rat, Chapter 2, pages 42-45 (Academic Press, 1980).
This procedure is a modification of a procedure described by Waynforth in Experimental and Surgical Technique in the Rat, Chapter 2, pages 42-45 (Academic Press, 1980). The rat tail vein is dilated by warming, and a test formulation administered by injection, using a 25G needle, with the rat held in a restrainer, and a heat source close enough to keep the tail warm during injection. The tail is observed for signs of irritation, which are outwardly apparent and can be detected by the presence of bruising, swelling, lack of flexibility, lumps, or by observation of distress in the animal upon subsequent administration.

[5] = precipitation on dropping the injectable formulation into pH 7.4 phosphate buffer; assay type: physicochemical; conditions: approx. 1 ml injectable formulation into 50 ml 0.1M pH 7.4 phosphate buffer
[6] = in vivo; cited from earlier work
[7] = stability testing of formulations at 25° C. (content, pH, appearance); assay type: physicochemical
Protocol: Stability testing of the formulations is done, for example, as described in Remington's Pharmaceutical Sciences. […] A formulation is prepared and placed in suitable container, storing it at 25° C., and periodically observing the appearance of the samples and removing aliquots to be tested for concentration and pH.
At periodic intervals, the appearance of the samples was noted, and aliquots were withdrawn and assayed for active agent concentration and pH.

[8] = compatibility with infusion fluids; assay type: physicochemical; conditions: wide range of commercially available infusion fluids
Protocol: Compatibility with infusion fluids is determined by adding a formulation of the invention to an infusion fluid and inspecting the resulting mixture for formation of any precipitate, discoloration, or the appearance of other physical changes, monitoring the solution active ingredient concentration to ensure no loss in potency, which could lead to decreases in efficacy.

[9] = tested on: rats
[10] = tested on: baboons
[11] = physchem

Compound: Cc1ccc(-c2nc(C)c(CN3CCN(C(c4ccccc4)c4ccccc4)CC3)[nH]2)cc1 [malonic]
- solubility (in words) [1]: did not have adequate solubility

Compound: Cc1ccc(-c2nc(CN3CCN(C(c4ccccc4)c4ccccc4)CC3)c(C)[nH]2)cc1
- pH relative to optimum range for physiological compatibility ([2]; when prepared at the desired concentrations): outside the optimum pH range for physiological compatibility

Compound: Cc1ccc(-c2nc(CN3CCN(C(c4ccccc4)c4ccccc4)CC3)c(C)[nH]2)cc1 [1-Diphenylmethyl-4-[(2-(4-methylphenyl)-5-methyl-1H-imidazol-4-yl)methyl]piperazine]
- calcium channel antagonist [3]: potent calcium channel antagonist
- solubility problems ([1]; particularly at physiological pH, in formulation process and upon administration to test animals): significant solubility problems

Compound: Cc1ccc(-c2nc(CN3CCN(C(c4ccccc4)c4ccccc4)CC3)c(C)[nH]2)cc1.Cl.Cl.Cl [1-diphenylmethyl-4-[(2-(4-methylphenyl)-5-methyl-1H-imidazol-4-yl)methyl]piperazine, trihydrochloride]
- signs of pain / irritation upon injection ([4]; 8 mg/ml solution, pH about 3-3.5, rat tail vein): bruising of the vein, hardening of the tail and other signs of pain upon injection
- compound precipitation in rat tail veins ([4]; 8 mg/ml solution, pH about 3-3.5 adjusted with sodium hydroxide, shortly after injection): compound precipitation was observed in rat tail veins shortly after injection
- precipitate at interface [5]: a white precipitate was observed immediately at the interface between the two liquids

Compound: Cc1ccc(-c2nc(CN3CCN(C(c4ccccc4)c4ccccc4)CC3)c(C)[nH]2)cc1 [sulfuric acid salt]
- pH in solution [2]: 1.76

Compound: Cc1ccc(-c2nc(C)c(CN3CCN(C(c4ccccc4)c4ccccc4)CC3)[nH]2)cc1 [aspartic]
- changes in properties of salts ([1]; salts investigated for adequate solubility at physiologically acceptable pH and reduced irritancy): only moderate changes in properties

Compound: Cc1ccc(-c2nc(C)c(CN3CCN(C(c4ccccc4)c4ccccc4)CC3)[nH]2)cc1 [oxalic]
- solubility (in words) [1]: did not have adequate solubility

Compound: Clc1ccccc1CN1CCc2sccc2C1 [ticlopidine]
- reduction of the risk of a second ischemic event [6]: demonstrated to reduce the risk of a second ischemic event

Compound: Cc1ccc(-c2nc(CN3CCN(C(c4ccccc4)c4ccccc4)CC3)c(C)[nH]2)cc1.O=C(O)C(O)C(O)C(=O)O [tartrate salt, 1-diphenylmethyl-4-[(2-(4-methylphenyl)-5-methyl-1H -imidazol-4-yl)methyl]piperazine tartrate]
- irritancy levels ([4]; one week tail vein injection trial): Acceptable irritancy levels
- pH in solution [2]: greater than 3.0
- physical and chemical stability of the solution ([7]; storage at 25° C.): at least 12 months
- compatibility with infusion fluids [8]: compatible with a wide range of commercially available infusion fluids
- administration over 28 days [9]: successful administration
- administration over 28 days [10]: successful administration
- solubility [11]: > 4000 µg/mL

Compound: Cc1ccc(-c2nc(CN3CCN(C(c4ccccc4)c4ccccc4)CC3)c(C)[nH]2)cc1 [ascorbic acid salt]
- discolouration of solutions upon standing ([7]; solutions of ascorbic acid salt, on standing): rapid discolouration upon standing
- solubility (in words) [1]: relatively insoluble

From US4973591A, “Parenteral formulations of 1-diphenylmethyl-4-((2-(4-methylphenyl)-5-methyl-1H-imidazol-4-yl)methyl )piperazine” (Syntex Pharmaceuticals, Ltd., priority 1988, dated 1990)
